Reference: patent US10603261B2, “Composition for enhancing hair fiber properties” (The Procter & Gamble Company, priority 2014, dated 2020)

Experiment: Combing force after leave-on hair treatment using neat material
Conditions: hair treated with neat material; 1 and 5 washes
Description: This double combing apparatus is attached to an Instron Model 5564. The switch is combed 5 times with a fine-tooth comb and hanged onto the Instron load cell. Then, the hair switch is placed in the double comb apparatus. The Instron pulls the hair vertically at a rate of 10 mm/min until the hair switch clears the final comb. The peak force as the switch passes through the top comb is reported.
The treatment is repeated to two additional switches. The treated hair switches are allowed to rest for 24 hours under controlled temperature and relative humidity conditions (27° C. and 50% RH). After this time period, each hair switch is washed with a clarifying shampoo (see shampoo washing protocol below) and allowed to air dry for 24 hours under controlled temperature and relative humidity conditions (27° C. and 50% RH). The combing force is measured for each switch and an average for the three switches is calculated. […] Linoleic acid • b.
Each application consists of adding shampoo to the hair, milking for 30 seconds followed by rinsing for 30 seconds. Shampoo is then reapplied (0.1 g/g), milked for 30 seconds and rinsed for 30 seconds.

Which “combability (in words)” value does the source give for `CCCCCCCC/C=C\CCCCCCCC(=O)O` [Oleic acid] here?
The value was “better combability”.
